For assay [1], the system named is ATXN3 transcripts containing exon 4 (E4E5). The assay is described as follows: ATXN3 quantitative splicing assay (qPCR, E4E5 primers/probe). The assay is classed as cell-based. Particulars: Homo sapiens; SK-N-MC cells, 24 h treatment, qPCR of exon 4 containing transcripts. The protocol: Human neuroblastoma SK-N-MC cells were plated in 384-well plates at 20,000 cells/well. Twenty-four hours after plating, cells were treated with compounds for 24 h at appropriate concentrations ranging from 30 μM to 0.6 nM (0.300 DMSO). Treated cells were lysed in 15 μL of lysis buffer, and cDNA was synthesized using the Fast Advanced Cells-to-Ct kit. Two μL of each cDNA was used in qPCR reactions to confirm the exon 4 skipped transcripts of ATXN3. A second set of primers/probe E4E5 was used to detect the transcripts containing exon 4. The third set of primers/probe E8E9 was used to detect total gene level of ATXN3. The qPCR reactions were prepared in 384-well plates in 10 μL volume, using TaqMan™ Fast Advanced Master Mix with primers and probes shown in the table below. Reactions were run in a Quant Studio 6 qPCR instrument with default settings.
The primers and probes are listed below in Table 5.

The test system of another assay is total ATXN3 protein. The assay is described as follows: ATXN3 total protein assay (MSD). Particulars: Homo sapiens, SK-N-MC cells, 48 h incubation. The assay is classed as cell-based. The protocol:
Human neuroblastoma SK-N-MC cells were seeded at 10,000 cells/well in 384 well plates one day prior to compound treatment. The concentrations of compounds were tested at appropriate doses ranging from 30 μM to 0.6 nM. After incubation for 48 hours, the cells were lysed with 25 μL of lysis buffer containing protease inhibitors, and total ATXN3 protein levels were assessed by Mesoscale Discovery (MSD) assay developed with one pair of anti-ATXN3 antibodies. The capture and detect antibodies were raised in mouse and rabbit respectively. Anti-rabbit MSD-ST antibody was used for secondary antibody.
ATXN3 recombinant protein was used for standards. The readouts were captured with 35 μL of MSD read buffer and multi-array 384-well high binding plates.

The text below walks through data of US20250340572A1, “COMPOSITIONS USEFUL FOR MODULATING SPLICING” (Skyhawk Therapeutics, Inc., priority 2022, published 2025).

In the case of `CC#Cc1c(C[C@H](C)N)sc2c(NCc3cccs3)snc12` [Compound 1, 7-[(S)-2-aminopropyl]-8-(1-propynyl)-4-thenylamino-3,6-dithia-2-azabicyclo[3.3.0]octa-1,4,7-triene], the half-maximal inhibitory concentration (IC50) (in assay [1]; with total ATXN3 protein) was 101 to 500 nM each time.

For the molecule `C[C@H](N)Cc1sc2c(NCc3cccs3)snc2c1C#Cc1ccccc1` [Compound 2, 7-[(S)-2-aminopropyl]-8-(2-phenylethynyl)-4-thenylamino-3,6-dithia-2-azabicyclo[3.3.0]octa-1,4,7-triene], the IC50 in assay [1] fell in the range of 5000 to 10000 nM; in the assay with total ATXN3 protein it was 501 to 5000 nM.

Regarding `CC(C)C#Cc1c(C[C@H](C)N)sc2c(NCc3cccs3)snc12` [Compound 4, 7-[(S)-2-aminopropyl]-8-(3-methyl-1-butynyl)-4-thenylamino-3,6-dithia-2-azabicyclo[3.3.0]octa-1,4,7-triene], the IC50 (in assay [1]; in the assay with total ATXN3 protein) was 5000 to 10000 nM each time.

`CC(C)C#Cc1c(C[C@H](C)N)sc2c(NCc3ccco3)snc12` [Compound 5, 7-[(S)-2-aminopropyl]-4-(furfurylamino)-8-(3-methyl-1-butynyl)-3,6-dithia-2-azabicyclo[3.3.0]octa-1,4,7-triene]: the IC50 (in assay [1]; with total ATXN3 protein) was 501 to 5000 nM in each case.

On to `C[C@H](N)Cc1sc2c(NCc3cccs3)snc2c1C#CC1CC1` [Compound 6, 7-[(S)-2-aminopropyl]-8-(2-cyclopropylethynyl)-4-thenylamino-3,6-dithia-2-azabicyclo[3.3.0]octa-1,4,7-triene], for which the IC50 in assay [1] lay within 101 to 500 nM; with total ATXN3 protein, 501 to 5000 nM.

Take `C[C@H](N)Cc1sc2c(NCc3ccco3)snc2c1C#CC1CC1` [Compound 7, 7-[(S)-2-aminopropyl]-8-(2-cyclopropylethynyl)-4-(furfurylamino)-3,6-dithia-2-azabicyclo[3.3.0]octa-1,4,7-triene]: the concentration for half-maximal inhibition (IC50) is 101 to 500 nM in assay [1] and 501 to 5000 nM in the assay on total ATXN3 protein.

Regarding `CC#Cc1c(C[C@@H](N)CO)sc2c(NCc3cccs3)snc12` [Compound 8, (R)-2-amino-3-{8-(1-propynyl)-4-thenylamino-3,6-dithia-2-azabicyclo[3.3.0]octa-1,4,7-trien-7-yl}-1-propanol], the figures for the half-maximal inhibitory concentration (IC50) (in assay [1]; with total ATXN3 protein) were 0.01 to 100 nM and 101 to 500 nM, respectively.

With `CC#Cc1c(C[C@@H](N)CO)sc2c(NCc3ccco3)snc12` [Compound 9, (R)-2-amino-3-{4-(furfurylamino)-8-(1-propynyl)-3,6-dithia-2-azabicyclo[3.3.0]octa-1,4,7-trien-7-yl}-1-propanol], the IC50 (in assay [1]; with total ATXN3 protein) was 0.01 to 100 nM throughout.

With `CC#Cc1c(C[C@H](C)N)sc2c(NCc3ccco3)snc12` [Compound 10, 7-[(S)-2-aminopropyl]-4-(furfurylamino)-8-(1-propynyl)-3,6-dithia-2-azabicyclo[3.3.0]octa-1,4,7-triene], the IC50 (in assay [1]; in the assay with total ATXN3 protein) was 101 to 500 nM throughout.

Regarding `COCC#Cc1c(C[C@H](C)N)sc2c(NCc3ccco3)snc12` [Compound 11, 7-[(S)-2-aminopropyl]-4-(furfurylamino)-8-(3-methoxy-1-propynyl)-3,6-dithia-2-azabicyclo[3.3.0]octa-1,4,7-triene], the IC50 (in assay [1]; in the assay on total ATXN3 protein) was 501 to 5000 nM throughout.

With `COCC#Cc1c(C[C@H](C)N)sc2c(NCc3cccs3)snc12` [Compound 15, 7-[(S)-2-aminopropyl]-8-(3-methoxy-1-propynyl)-4-thenylamino-3,6-dithia-2-azabicyclo[3.3.0]octa-1,4,7-triene], the IC50 (in assay [1]; in the assay with total ATXN3 protein) was 10000 to 40000 nM each time.

On to `CCC#Cc1c(C[C@H](C)N)sc2c(NCc3cccs3)snc12` [Compound 16, 7-[(S)-2-aminopropyl]-8-(1-butynyl)-4-thenylamino-3,6-dithia-2-azabicyclo[3.3.0]octa-1,4,7-triene], for which the IC50 (in assay [1]; in the assay with total ATXN3 protein) was 501 to 5000 nM each time.

As for `C[C@H](N)Cc1sc2c(NCc3cccs3)snc2c1C#CCF` [Compound 17, 7-[(S)-2-aminopropyl]-8-(3-fluoro-1-propynyl)-4-thenylamino-3,6-dithia-2-azabicyclo[3.3.0]octa-1,4,7-triene], the IC50 in assay [1] is 101 to 500 nM; with total ATXN3 protein, 501 to 5000 nM.

With `CCC#Cc1c(C[C@@H](N)[C@H](C)F)sc2c(NCc3cccs3)snc12` [Compound 20, 7-[(2R,3S)-2-amino-3-fluorobutyl]-8-(1-butynyl)-4-thenylamino-3,6-dithia-2-azabicyclo[3.3.0]octa-1,4,7-triene], the 50% inhibitory concentration (IC50) (in assay [1]; in the assay on total ATXN3 protein) was 101 to 500 nM throughout.

In the case of `CC#Cc1c(C[C@@H](N)[C@H](C)F)sc2c(NCc3ccccc3)snc12` [Compound 21, 7-[(2R,3S)-2-amino-3-fluorobutyl]-4-benzylamino-8-(1-propynyl)-3,6-dithia-2-azabicyclo[3.3.0]octa-1,4,7-triene], the half-inhibitory concentration (IC50) (in assay [1]; in the assay with total ATXN3 protein) was 501 to 5000 nM each time.

For `CC#Cc1c(C[C@@H](N)[C@H](C)F)sc2c(NCc3ccco3)snc12` [Compound 22, 7-[(2R,3S)-2-amino-3-fluorobutyl]-4-(furfurylamino)-8-(1-propynyl)-3,6-dithia-2-azabicyclo[3.3.0]octa-1,4,7-triene], the half-maximal inhibitory concentration (IC50) (in assay [1]; in the assay with total ATXN3 protein) was 0.01 to 100 nM each time.

In the case of `CC#Cc1c(C[C@@H](N)[C@H](C)F)sc2c(NCc3cccs3)snc12` [Compound 23, 7-[(2R,3S)-2-amino-3-fluorobutyl]-8-(1-propynyl)-4-thenylamino-3,6-dithia-2-azabicyclo[3.3.0]octa-1,4,7-triene], the half-maximal inhibitory concentration (IC50) (in assay [1]; in the assay on total ATXN3 protein) was 101 to 500 nM each time.

Turning to `CC#Cc1c(C[C@@H](N)COC)sc2c(NCc3ccccc3)snc12` [Compound 24, 7-[(R)-2-amino-3-methoxypropyl]-4-benzylamino-8-(1-propynyl)-3,6-dithia-2-azabicyclo[3.3.0]octa-1,4,7-triene], the half-maximal inhibitory concentration (IC50) lay within 10000 to 40000 nM in assay [1] and 5000 to 10000 nM with total ATXN3 protein.

In the case of `CC#Cc1c(C[C@@H](N)COC)sc2c(NCc3ccco3)snc12` [Compound 25, 7-[(R)-2-amino-3-methoxypropyl]-4-(furfurylamino)-8-(1-propynyl)-3,6-dithia-2-azabicyclo[3.3.0]octa-1,4,7-triene], the IC50 lay within 101 to 500 nM in assay [1] and 501 to 5000 nM in the assay on total ATXN3 protein.

For the molecule `CC#Cc1c(C[C@@H](N)COC)sc2c(NCc3cccs3)snc12` [Compound 26, 7-[(R)-2-amino-3-methoxypropyl]-8-(1-propynyl)-4-thenylamino-3,6-dithia-2-azabicyclo[3.3.0]octa-1,4,7-triene], the IC50 (in assay [1]; with total ATXN3 protein) was 501 to 5000 nM throughout.

Consider `C[C@H](N)Cc1sc2c(NCc3cccs3)snc2c1C#CCO` [Compound 27, 3-{7-[(S)-2-aminopropyl]-4-thenylamino-3,6-dithia-2-azabicyclo[3.3.0]octa-1,4,7-trien-8-yl}-2-propyn-1-ol], for which the 50% inhibitory concentration (IC50) (in assay [1]; in the assay with total ATXN3 protein) was 501 to 5000 nM in each case.

For the molecule `CC#Cc1c(C(F)(F)[C@H](C)N)sc2c(NCc3cccs3)snc12` [Compound 28, 7-[(S)-2-amino-1,1-difluoropropyl]-8-(1-propynyl)-4-thenylamino-3,6-dithia-2-azabicyclo[3.3.0]octa-1,4,7-triene], the IC50 (in assay [1]; with total ATXN3 protein) was 501 to 5000 nM each time.

Turning to `CC#Cc1c(C[C@@H](N)CC2CC2)sc2c(NCc3cccs3)snc12` [Compound 29, 7-[(S)-2-amino-3-cyclopropylpropyl]-8-(1-propynyl)-4-thenylamino-3,6-dithia-2-azabicyclo[3.3.0]octa-1,4,7-triene], the IC50 (in assay [1]; in the assay with total ATXN3 protein) was 501 to 5000 nM in each case.

Turning to `CC#Cc1c(C[C@@H](N)CC2CC2)sc2c(NCc3ccco3)snc12` [Compound 30, 7-[(S)-2-amino-3-cyclopropylpropyl]-4-(furfurylamino)-8-(1-propynyl)-3,6-dithia-2-azabicyclo[3.3.0]octa-1,4,7-triene], the half-inhibitory concentration (IC50) (in assay [1]; with total ATXN3 protein) was 101 to 500 nM each time.

As for `CC#Cc1c(C[C@@H](N)C(F)F)sc2c(NCc3ccco3)snc12` [Compound 36, 7-[(R)-2-amino-3,3-difluoropropyl]-4-(furfurylamino)-8-(1-propynyl)-3,6-dithia-2-azabicyclo[3.3.0]octa-1,4,7-triene], the IC50 (in assay [1]; in the assay with total ATXN3 protein) was 501 to 5000 nM in each case.

In the case of `CC#Cc1c(C[C@@H](N)C(F)F)sc2c(NCc3cccs3)snc12` [Compound 37, 7-[(R)-2-amino-3,3-difluoropropyl]-8-(1-propynyl)-4-thenylamino-3,6-dithia-2-azabicyclo[3.3.0]octa-1,4,7-triene], the figures for the IC50 (in assay [1]; with total ATXN3 protein) were 501 to 5000 nM and 5000 to 10000 nM, respectively.
